Measurements from paper PMC6798786 (Brain Communications, 2019).
pKi: −log10 of the molar value. Counter-ions that a name gives are not always drawn. Like-named read-outs stand apart in the source and are kept apart here.

How the values were obtained:
scn1lab mutant zebrafish = test: locomotion (mean swim velocity) seizure-like behaviour assay in scn1lab mutant zebrafish larvae; format: in vivo, Danio rerio; settings: for change in vivo at 100 µM / change in vivo at 250 µM: Danio rerio
Procedure: (§1) For locomotion studies, zebrafish larvae (5 days post-fertilization) were placed into a single well of a clear flat-bottomed 96-well microplate containing embryo media. Sex determination is not possible at this stage of development. All drug screening experiments were conducted in an unbiased manner by investigators blinded to the test compounds and all files coded for post hoc analysis. The 96-well plate containing larvae was then placed inside a DanioVision box where they were allowed to acclimate (20 min; room temperature). EthoVision XT software (DanioVision, Noldus Information Technology) was used to obtain locomotion plots (10 min in duration). Seizure scoring was performed, as described ([Baraban et al., 2005]). All locomotion plots were analysed for distance travelled (in millimetres) and mean velocity (in millimetres per second). After 90 min of drug exposure larvae were examined for toxic side-effects. Compounds that decreased or stopped the larva heartbeat, or reduced or eliminated the escape response when touched, were considered toxic.
For behaviour analysis, the threshold for a change in mean swim velocity ≥40% is considered significant (>1.5× SD of 250 control treated scn1lab). Unless otherwise indicated, all data in this manuscript are presented as the mean ± standard error of the mean. […] Statistically significant differences are indicated with asterisks (*P < 0.05; **P < 0.01; ***P < 0.001). […]

[1] = tested on: scn1lab mutant zebrafish larvae; test: toxicity check of larvae after 90 min drug exposure (heartbeat, escape response); format: in vivo, Danio rerio; settings: 100 µM or 250 µM; 90 min exposure
Procedure: as §1, with “Seizure scoring was performed, as described ([Baraban et al., 2005]).” left out

human 5-HT2AR = human 5-HT2AR (Homo sapiens, UniProt P28223); test: radioligand binding (NIMH PDSP)
Sequence of human 5-HT2AR (P28223 whole entry): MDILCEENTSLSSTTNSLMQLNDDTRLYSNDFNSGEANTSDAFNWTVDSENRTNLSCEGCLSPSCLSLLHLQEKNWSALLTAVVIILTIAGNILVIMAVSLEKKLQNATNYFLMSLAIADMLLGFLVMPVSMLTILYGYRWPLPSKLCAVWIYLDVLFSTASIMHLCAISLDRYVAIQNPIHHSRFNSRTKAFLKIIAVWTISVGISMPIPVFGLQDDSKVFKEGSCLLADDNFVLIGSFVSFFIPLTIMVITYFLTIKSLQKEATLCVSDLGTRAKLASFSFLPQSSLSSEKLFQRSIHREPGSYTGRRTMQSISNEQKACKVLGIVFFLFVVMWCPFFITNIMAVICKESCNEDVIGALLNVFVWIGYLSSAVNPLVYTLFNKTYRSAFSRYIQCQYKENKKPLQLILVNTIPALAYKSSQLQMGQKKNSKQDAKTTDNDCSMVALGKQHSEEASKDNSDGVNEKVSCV
Procedure: (§2) All in vitro binding assay and Ki data studies were performed by the US National Institute of Mental Health Psychoactive Drug Screening Program (NIMH PDSP). For these studies, drugs were screened against recombinant, stably expressed human 5-HT2AR, 5-HT2BR, 5-HT2CR and H1, as described at https://pdspdb.unc.edu/pdspWeb/ ([Besnard et al., 2012]).

human 5-HT2BR = human 5-HT2BR (Homo sapiens, UniProt P41595); test: radioligand binding (NIMH PDSP); settings: read-out: Ki 5-HT2BR
Sequence of human 5-HT2BR (P41595 whole entry): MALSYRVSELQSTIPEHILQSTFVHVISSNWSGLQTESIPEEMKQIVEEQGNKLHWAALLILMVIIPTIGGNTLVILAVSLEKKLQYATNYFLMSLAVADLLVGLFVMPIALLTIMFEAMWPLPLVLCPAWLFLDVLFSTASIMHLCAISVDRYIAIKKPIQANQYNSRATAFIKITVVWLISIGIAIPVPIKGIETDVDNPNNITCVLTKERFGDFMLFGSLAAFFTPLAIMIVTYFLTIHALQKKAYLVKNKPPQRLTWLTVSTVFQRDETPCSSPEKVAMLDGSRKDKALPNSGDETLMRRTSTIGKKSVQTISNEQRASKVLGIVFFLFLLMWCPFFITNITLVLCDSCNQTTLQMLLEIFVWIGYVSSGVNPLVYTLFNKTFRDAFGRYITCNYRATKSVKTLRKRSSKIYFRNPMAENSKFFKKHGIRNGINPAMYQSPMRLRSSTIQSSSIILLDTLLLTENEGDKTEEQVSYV
Procedure: as §2

human 5-HT2CR [2] = molecular target: T1, human 5-HT2CR (Homo sapiens, UniProt P28335); test: radioligand binding (NIMH PDSP)
T1 sequence (P28335 33-458): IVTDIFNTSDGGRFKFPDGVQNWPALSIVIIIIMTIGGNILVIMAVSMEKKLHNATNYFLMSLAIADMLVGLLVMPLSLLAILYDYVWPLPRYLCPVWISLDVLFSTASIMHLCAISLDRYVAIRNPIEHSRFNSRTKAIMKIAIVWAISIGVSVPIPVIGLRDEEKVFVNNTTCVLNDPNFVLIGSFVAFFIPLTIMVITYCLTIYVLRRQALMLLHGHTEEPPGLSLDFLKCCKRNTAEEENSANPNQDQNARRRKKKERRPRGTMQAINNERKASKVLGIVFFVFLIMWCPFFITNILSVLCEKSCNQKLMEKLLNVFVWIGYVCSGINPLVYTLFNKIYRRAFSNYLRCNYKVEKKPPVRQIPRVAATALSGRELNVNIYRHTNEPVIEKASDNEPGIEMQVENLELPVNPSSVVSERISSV
Procedure: as §2

human H1 = human H1 (Homo sapiens, UniProt P35367); test: radioligand binding (NIMH PDSP); settings: read-out: Ki H1
Sequence of human H1 (P35367 whole entry): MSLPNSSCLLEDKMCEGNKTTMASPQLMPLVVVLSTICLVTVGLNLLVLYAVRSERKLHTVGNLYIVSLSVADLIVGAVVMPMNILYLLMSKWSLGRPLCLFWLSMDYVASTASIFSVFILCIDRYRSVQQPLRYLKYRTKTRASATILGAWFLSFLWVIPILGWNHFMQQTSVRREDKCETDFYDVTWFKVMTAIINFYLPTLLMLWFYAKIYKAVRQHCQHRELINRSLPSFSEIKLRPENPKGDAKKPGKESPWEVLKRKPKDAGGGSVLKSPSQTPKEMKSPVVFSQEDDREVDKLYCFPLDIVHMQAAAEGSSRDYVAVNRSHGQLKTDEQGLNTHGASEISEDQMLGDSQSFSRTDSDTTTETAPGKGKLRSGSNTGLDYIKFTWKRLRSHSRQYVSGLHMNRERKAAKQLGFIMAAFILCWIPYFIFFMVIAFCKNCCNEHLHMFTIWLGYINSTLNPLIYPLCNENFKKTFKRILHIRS
Procedure: as §2

human 5-HT2CR [3] = molecular target: T1, human 5-HT2CR; settings: commercially available compounds known to bind 5-HT2BR; ref Roth et al., 2000; read-out: 5-HT2CR (nM), Table S3; cited from earlier work
[4] = read-out: % change in velocity, individual larva 1 (heat map)
[5] = read-out: % change in velocity, individual larva 2 (heat map)
[6] = read-out: % change in velocity, individual larva 3 (heat map)
[7] = read-out: % change in velocity, individual larva 4 (heat map)
[8] = read-out: % change in velocity, individual larva 5 (heat map)
[9] = read-out: % change in velocity, individual larva 6 (heat map)
[10] = read-out: mean velocity change from six fish, Trial 1
[11] = read-out: mean velocity change from six fish, Trial 2
[12] = recombinant, stably expressed human receptor, clemizole analogues

With `O=C(c1nc2ccccc2n1Cc1ccc(Cl)cc1)N1CCCC1` [Compound 2] the change in vivo at 100 µM (scn1lab mutant zebrafish; [4]) was -68.2%, the change in vivo at 250 µM (scn1lab mutant zebrafish; [4]) was -100% and the change in vivo at 100 µM (scn1lab mutant zebrafish; [5]) was -100%. It also gave a change in vivo at 250 µM (scn1lab mutant zebrafish; [5]) of -100%, a change in vivo at 100 µM (scn1lab mutant zebrafish; [6]) of -100% and a change in vivo at 250 µM (scn1lab mutant zebrafish; [6]) of -100%. The change in vivo at 100 µM (scn1lab mutant zebrafish; [7]) was -100%, the change in vivo at 250 µM (scn1lab mutant zebrafish; [7]) was -100% and the change in vivo at 100 µM (scn1lab mutant zebrafish; [8]) was -100%. The change in vivo at 250 µM (scn1lab mutant zebrafish; [8]) was -100%, the change in vivo at 100 µM (scn1lab mutant zebrafish; [9]) was -100% and the change in vivo at 250 µM (scn1lab mutant zebrafish; [9]) was -100%. It also gave a change in vivo at 100 µM (scn1lab mutant zebrafish; [10]) of -97.2%, a change in vivo at 250 µM (scn1lab mutant zebrafish; [10]) of -100% and a change in vivo at 100 µM (scn1lab mutant zebrafish; [11]) of -97.2%. For the same molecule, the “toxicity in initial analogue screening” value [1] was “toxic”.
In the case of `Clc1ccc(Cn2c(CN3CCSC3)nc3ccccc32)cc1` [Compound 28], the pKi (human 5-HT2AR; [12]) was under 5.00, the pKi (human 5-HT2BR; [12]) was 6.33 and the pKi (human 5-HT2CR [2]; [12]) was 5.96. For the same molecule, the pKi (human H1; [12]) was 7.36.
For `Clc1ccc(Cn2c(CN3CCCC3)cc3ccccc32)cc1` [Compound 11], the change in vivo at 100 µM (scn1lab mutant zebrafish; [4]) was 39.3%, the change in vivo at 250 µM (scn1lab mutant zebrafish; [4]) was -100% and the change in vivo at 100 µM (scn1lab mutant zebrafish; [5]) was 403%. It also gave a change in vivo at 250 µM (scn1lab mutant zebrafish; [5]) of -100%, a change in vivo at 100 µM (scn1lab mutant zebrafish; [6]) of 91.2% and a change in vivo at 250 µM (scn1lab mutant zebrafish; [6]) of -100%. It also gave a change in vivo at 100 µM (scn1lab mutant zebrafish; [7]) of 120%, a change in vivo at 250 µM (scn1lab mutant zebrafish; [7]) of -100% and a change in vivo at 100 µM (scn1lab mutant zebrafish; [8]) of 149%. The change in vivo at 250 µM (scn1lab mutant zebrafish; [8]) was -100%, the change in vivo at 100 µM (scn1lab mutant zebrafish; [9]) was 66.8% and the change in vivo at 250 µM (scn1lab mutant zebrafish; [9]) was -100%. For the same molecule, the change in vivo at 100 µM (scn1lab mutant zebrafish; [10]) was 124%, the change in vivo at 250 µM (scn1lab mutant zebrafish; [10]) was -100% and the change in vivo at 100 µM (scn1lab mutant zebrafish; [11]) was 124%. The pKi (human 5-HT2AR) was 6.20, the pKi (human 5-HT2BR) was 6.87 and the pKi (human 5-HT2CR [2]) was 6.61. It also gave a pKi (human H1) of 8.19.
For `CC(N)Cc1c[nH]c2ccc(OCc3cccs3)cc12` (stereo not shown) [reference compound], the “effect on seizure-like swim behaviour, commercially available compounds” value (scn1lab mutant zebrafish; three concentrations, 30 and 90 min exposure) is listed as “failed to reach our significance threshold” and the Ki (human 5-HT2CR [3]) is listed as 115 nM.
For `FC1(F)CCN(Cc2nc3ccccc3n2Cc2ccc(Cl)cc2)CC1` [Compound 27], the “toxicity in initial analogue screening” value [1] was “toxic”, the pKi (human 5-HT2AR; [12]) was under 5.00 and the pKi (human 5-HT2BR; [12]) was under 5.00. It also gave a pKi (human 5-HT2CR [2]; [12]) of 5.15 and a pKi (human H1; [12]) of 6.35.
With `Clc1ccc(Cn2c(CN3CCOCC3)nc3ccccc32)cc1` [Compound 23] the “toxicity in initial analogue screening” value [1] was “toxic”, the pKi (human 5-HT2AR; [12]) was under 5.00 and the pKi (human 5-HT2BR; [12]) was 6.29. For the same molecule, the pKi (human 5-HT2CR [2]; [12]) was under 5.00 and the pKi (human H1; [12]) was 7.47.
Work on `CN1CCN(Cc2nc3ccccc3n2Cc2ccc(Cl)cc2)CC1` [Compound 26] yielded a pKi (human 5-HT2AR; [12]) of 6.50, a pKi (human 5-HT2BR; [12]) of 7.70 and a pKi (human 5-HT2CR [2]; [12]) of 6.50. For the same molecule, the pKi (human H1; [12]) was 8.92.
With `CC(C)C[C@H]1C(=O)N2CCC[C@H]2[C@]2(O)O[C@](NC(=O)[C@@H]3C=C4c5cccc6[nH]c(Br)c(c56)C[C@H]4N(C)C3)(C(C)C)C(=O)N12` [bromocriptine, Bromocriptine mesylate, reference compound] the “effect on seizure-like swim behaviour at 10 µM” value (scn1lab mutant zebrafish; 10 µM) was “significantly reduced seizure-like swim behaviour”.
With `Clc1ccc(Cn2c(CN3CCCCC3)nc3ccccc32)cc1` [Compound 22] the “toxicity in initial analogue screening” value [1] was “toxic”, the pKi (human 5-HT2AR; [12]) was 6.21 and the pKi (human 5-HT2BR; [12]) was 6.51. It also gave a pKi (human 5-HT2CR [2]; [12]) of 5.34 and a pKi (human H1; [12]) of 8.07.
